Measured values reported in patent US20230276831A1, “Food/Beverage Article” (Kikkoman Corporation, priority 2020, published 2023).

Test system: Bacillus coagulans (IFO12714)
Experiment: Antimicrobial action of licoricidin on flat sour bacteria in Japanese seasoned soup stock (Test Example 8)
Format: cell-based
Design: key to Evaluation (antimicrobial activity by comparing the pHs): A: There is no change in pH as compared with the control.; B: The pH decreases as compared with the control
Conditions: for pH: Japanese seasoned soup stock (salt 3% (w/v), alcohol 0.4% (v/v), pH 5.2), cultured at 45° C. for 7 days; for Evaluation (antimicrobial activity by comparing the pHs): Japanese seasoned soup stock
Procedure: Specifically, components contained in dried bonito was extracted with water; Koikuchi soy sauce (produced by Kikkoman Corporation), sugar, and salt were blended with the obtained extract; and the resulting mixture was heated to produce Japanese seasoned soup stock. The salt concentration of the obtained Japanese seasoned soup stock was 3% (w/v), the alcohol concentration was 0.4% (v/v), and the pH was 5.2.
Licoricidin (produced by ChemFaces) was added to the produced Japanese seasoned soup stock to concentrations of 1 ppm, 5 ppm, 10 ppm, 25 ppm, and 50 ppm. Flat sour bacteria (Bacillus coagulans (IFO12714)) were then added to 10^4 to 10^5 cells/mL and cultured at 45° C. for 7 days. Japanese seasoned soup stock to which licoricidin was not added was used as a control, and the antimicrobial activity was evaluated by comparing the pHs. The evaluation was performed using the following criterion.
• A: There is no change in pH as compared with the control. • B: The pH decreases as compared with the control.

For COc1c(CC=C(C)C)c(O)cc2c1C[C@H](c1ccc(O)c(CC=C(C)C)c1O)CO2 [Licoricidin, 4-[(R)-7-hydroxy-5-methoxy-6-(3-methyl-2-butenyl)chroman-3-yl]-2-(3-methyl-2-butenyl)-1,3-benzenediol], the pH (licoricidin 1 ppm) was 4.1, the pH (licoricidin 5 ppm) was 4.1 and the pH (licoricidin 10 ppm) was 5.3. For the same compound, the pH (licoricidin 25 ppm) was 5.3, the pH (licoricidin 50 ppm) was 5.2 and the “Evaluation (antimicrobial activity by comparing the pHs)” value (“Evaluation” below) (licoricidin 1 ppm) was “B”. For the same compound, the “Evaluation” value (licoricidin 5 ppm) was “B”, the “Evaluation” value (licoricidin 10 ppm) was “A” and the “Evaluation” value (licoricidin 25 ppm) was “A”. The “Evaluation” value (licoricidin 50 ppm) was “A” and the “Antimicrobial activity to flat sour bacteria” value (conclusion of Test Example 8) was “exhibited antimicrobial activity”.
